# Experimental data published in patent US20190125785A1, “HYPOTHERMAL INHALATION GAS COMPOSITION” (MONATOMICS TECHNOLOGY, priority 2016, published 2019).
# Assay: rectal body temperature of rats after 3 hours in an enclosure supplied with a 22% oxygen / 78% helium, xenon or argon mixture at different temperatures
# Format: in vivo, rat
# Details: comparison of FIGS. 1 and 2
# Source text: The graph of FIG. 1, which represents the experimental body temperature data Tc collected on rats as a function of the inhalation temperature Ti of a helium-oxygen mixture (curve C1) or of a xenon-oxygen mixture (curve C2), makes it possible to determine the proportions of the gas composition to be complied with in order to obtain a hypothermal gas mixture, depending on the inhalation temperature. In a more detailed manner, curves C1 and C2 correspond to regression lines obtained based on said experimental data Pi, several examples of which have been plotted in FIG. 1.
# The experimental data were obtained as follows: The rats were placed for 3 hours in a closed enclosure supplied with a continuous flow of a gas mixture containing 22% oxygen (O2) and 78% helium, xenon or argon (He, Xe or Ar). This gas mixture was administered at different temperatures. The flow of the gas mixture was 10 mL/min and made it possible to maintain the carbon dioxide (CO2) concentration below 0.03% and the humidity at around 60% to 70%. […] At the end of the 3 hours of exposure, the rectal body temperature of the rats was measured for each administration temperature.
# The inhalation temperature Ti can be between 16° C. and 27° C., for example.
smiles,measurement,value
"[Ar] [Argon (Ar), Argon]",hypothermal properties (slope of curve C3 compared with curve C2),lower hyperthermal properties than xenon
